Consider 2 compounds from article PMC7822029, “Nanoparticles Based on Quaternary Ammonium Chitosan-methyl-β-cyclodextrin Conjugate for the Neuropeptide Dalargin Delivery to the Central Nervous System: An In Vitro Study” (Pharmaceutics, 2020).

The target in one data set is T1, α-chymotrypsin (CHT) (Bos taurus, UniProt P00766).
T1 construct: purchased Merk (Merck/Sigma-Aldrich, St. Louis, MO, USA)
As to the kind of experiment: Enzymatic degradation kinetics with α-chymotrypsin. It is filed as in vitro ADME. The note with it: CHT 0.36 mg/mL mixed, final DAL 0.50 mg/mL, 0.4 M PB, 37 ℃, 80 rpm, HPLC, mean ± SD of three independent experiments. How it is done: (§1) Stock 1 mg/mL solutions of DAL-NP or free DAL in filtered 0.4 M PB were used for the enzymatic digestion tests. The solutions were mixed with 0.36 mg/mL CHT or 0.18 mg/mL PAC to obtain solutions with a final DAL concentration of 0.50 mg/mL. The DAL-NP and free DAL samples were subjected to digestion in the presence of CHT or PAC at 37 ℃ in a shaker water bath (80 rpm). At pre-established intervals, samples were withdrawn, appropriately diluted with the mobile phase (4 ℃), and analyzed in triplicate for DAL by HPLC, as described previously. The analysis was repeated in triplicate.

A further data set has as its system pancreatin (PAC). Briefly: Enzymatic degradation kinetics with pancreatin. It is filed as in vitro ADME. The note with it: PAC 0.18 mg/mL mixed, final DAL 0.50 mg/mL, 0.4 M PB, 37 ℃, HPLC. How it is done:
as §1

Data set [1] can be described thus: Cytotoxicity by WST-1 assay, Caco-2. It is filed as cell-based. The settings on record: human, WST-1, DAL 17–150 µg/mL, HBSS pH 6.8, three independent experiments, read-out: cell vitality, Caco-2, over the whole concentration range. The method, then:
To study the cytotoxicity of the DAL/N^+-Ch-CD complex, we mixed 400 µL of polymer solution (3.175 mg/mL) and 380 µL of 1 mg/mL aqueous DAL, and the mix was lyophilized under the conditions described above. The DAL-NP were lyophilized and the lyophilized product was re-suspended in 250 µL of 0.22 µm filtered water. An aliquot of dispersion (200 µL) was withdrawn and added to 20 µL of Hank’s buffer solution 10× (HBSS 37 ℃, pH 6.8), and the mix was made to 2 mL with HBSS 1X as to have a DAL content of […]. The Caco-2 cells were subjected to DAL concentrations in the 17–150 µg/mL range, while the bEnd.3 cells were brought into contact with DAL concentrations in the 17–100 µg/mL range; more specifically, DAL was free in solution, contained in the DAL/N^+-rCh-CD (1:1) complex, or encapsulated in NP. The cytotoxicity of the compounds under study was evaluated by the WST-1 assay. Caco-2 and bEnd.3 cells were seeded in each well of 96-well plates at a seeding density of 2 × 10^4 cells per well, and left to proliferate for 24 h at 37 ℃ in 5% CO2. The culture medium was then removed and replaced with samples of DAL, DAL/N^+-Ch-CD complex, and DAL-NP, as previously described. Afterwards, formazan dye absorbance was quantified at 450 nm with the reference wavelength of 655 by using an Enspire 230 (Perkin-Elmer, Waltham, MA, USA) multilabel reader.

The next data set concerns Caco-2 monolayer. Briefly: Permeation across Caco-2 monolayer (Transwell). It is filed as in vitro ADME. The settings on record: Caco-2 monolayer 24 days, A-B, apical DAL 150 µg/mL, up to 3 h, HPLC, NP as FITC-labeled DAL-NP. How it is done: The permeation studies were performed as described previously. Briefly, a Caco-2 monolayer was obtained by cell seeding (10^5 cells per well) on Transwell 12-well plates (pore size […], area 1.12 cm^2; Sigma-Aldrich, Saint Louis, MO, USA). Thereafter, 0.5 and 1.5 mL of culture medium were added to apical and basolateral compartments of the inserts, respectively; the culture medium was replaced every 2 days for 24 days. The transepithelial electrical resistance (TEER, Ω cm^2) measurement during the permeatstudies was carried out using a voltmeter with rod electrodes (Voltmeter Millicells-ERS, Millipore, Molsheim, France). The TEER values for the Caco-2 cell monolayer grown on the Transwell filter were ion taken at time 0, every hour for 3 h, and at 24 h.
Both the NP vehicle and the DAL were followed in the mucosal and basolateral phases. […] The withdrawn samples were kept in ice and analyzed by HPLC. The evaluation of DAL contained in NP-FITC by HPLC implied subtracting the contribution of the fluorescein-labeled polymer from the peptide peak area. Therefore, with each sample to be analyzed, a specific fluorescence intensity was recorded by a spectrofluorometer from which the fluorescent polymer concentration to be injected in the HPLC apparatus could be extrapolated. […]

The next data set concerns bEnd.3 monolayer. As to the kind of experiment: Permeation across bEnd.3 monolayer (Transwell, BBB model). It is filed as in vitro ADME, murine. An excerpt:
The medium was changed every 2 days.

Molecules are shown by their SMILES. Non-standard residues stand in square brackets, D forms with d. Residues, ends and D or L forms follow the SMILES beside them.

Protocol for bEnd.3 monolayers: The bEnd.3 cells, at a concentration of 5 × 10^4 cells per well, were seeded on 12-well Transwell plates with polyester filters with 0.4 µm membrane pores and incubated 10 days at 37 ℃ in a 5% CO2 atmosphere. One and a half milliliters of full medium was added to the basal chamber, while a volume of 0.5 mL, including the cells, was added to the apical chamber. The medium was changed every 2 days. After 6 days culture, the medium of the basolateral chamber was replaced by serum-free medium and the cells were cultured for 4 more days before the permeation experiment. To evaluate the confluence of the cell monolayer, and during the permeation studies, we measured the TEER at time 0 and at each hour for 3 h, and then at 24 h, as previously described. […] At 1 h intervals up to 3 h, the runs were interrupted and 500 µL was collected from the apical chamber and 1.5 mL from the basolateral chamber. Permeation of DAL and FITC-labeled vehicle into the basolateral chamber as well as DAL and FITC-labeled vehicle concentrations in the apical chamber were measured as described above.

As to `CC(C)C[C@H](NC(=O)[C@H](Cc1ccccc1)NC(=O)CNC(=O)[C@@H](C)NC(=O)[C@@H](N)Cc1ccc(O)cc1)C(=O)N[C@@H](CCCNC(=N)N)C(=O)O` [DAL, (D-Ala2)-Leu Enkephalin-Arg] (H-Y[dA]GFLR-OH), the “reduction of substrate (DAL) after 5 min with CHT” value on α-chymotrypsin (CHT) was 90 ± 0.41%. Also, the “reduction of initial DAL content 2 min after adding PAC” value with pancreatin (PAC) (80 rpm, 2 min, three independent experiments) was 85 ± 1.39%. Further, the “DAL present after 5 min with PAC” value in the data set with pancreatin (PAC) (5 min) is “no peptide was present”. The viability in data set [1] was > 70%. Further, in the data set on Caco-2 monolayer, the “DAL presence in basolateral chamber, Caco-2” value is “could never be evidenced”. The “TEER of bEnd.3 monolayer during permeation experiment” value with bEnd.3 monolayer (100% corresponds to 180 Ω cm^2, initial apical DAL 25 µg/mL, 3 h) amounted to 100%. Also, the “DAL presence in basolateral chamber, bEnd.3” value with bEnd.3 monolayer (bEnd.3 monolayer 10 days, Transwell, A-B, apical DAL 25 µg/mL, up to 3 h, HPLC, NP as FITC-labeled DAL-NP) is given as “below the analytical limit”.

Regarding `O=C1OC2(c3ccc(O)cc3Oc3cc(O)ccc32)c2ccccc21` [NaF, Sodium fluorescein], in the data set on bEnd.3 monolayers, the “Papp, NaF 50 μg/mL” value is listed as 0.51 10-6 cm/sec and the “Papp, NaF 100 μg/mL” value was 0.52 10-6 cm/sec.
